Laboratory results: the supplement of paper PMC10307832

Key:
Assay in all cases: relative viability (nuclei count vs DMSO), 5 days (fraction); higher = more cells survive
Vismodegib + Decitabine = compound: CS(=O)(=O)c1ccc(C(=O)Nc2ccc(Cl)c(-c3ccccn3)c2)c(Cl)c1 [Vismodegib] + Nc1ncn([C@H]2C[C@H](O)[C@@H](CO)O2)c(=O)n1 [Decitabine] (partner 2 µM)
Summary of the method: (§1)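 The day after seeding in 1536-well plates, lung cancer cell lines were treated by pin tool with a single drug, or with a fixed anchor-drug dose together with five library-drug doses (not always all listed) in √10 steps. After 5 days, a combined fix-and-stain solution (final 0.05% Triton X-100, 1% formaldehyde, 1 ug/ml Hoechst) was added. Nuclei counted on 4× images gave relative viability as treated counts over vehicle counts, reported as the median of duplicate plates.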

VE-821 + Bortezomib = compound: CS(=O)(=O)c1ccc(-c2cnc(N)c(C(=O)Nc3ccccc3)n2)cc1 [VE-821] + CC(C)C[C@H](NC(=O)[C@H](Cc1ccccc1)NC(=O)c1cnccn1)B(O)O [Bortezomib] (partner 0.002 µM)
Summary of the method: as §1

Vismodegib + Phenformin = compound: CS(=O)(=O)c1ccc(C(=O)Nc2ccc(Cl)c(-c3ccccn3)c2)c(Cl)c1 [Vismodegib] + N=C(N)NC(=N)NCCc1ccccc1 [Phenformin] (partner 250 µM)
Summary of the method: as §1

VE-821 + Tozasertib = compound: CS(=O)(=O)c1ccc(-c2cnc(N)c(C(=O)Nc3ccccc3)n2)cc1 [VE-821] + Cc1cc(Nc2cc(N3CCN(C)CC3)nc(Sc3ccc(NC(=O)C4CC4)cc3)n2)n[nH]1 [Tozasertib] (partner 0.1 µM)
Summary of the method: as §1

Cell Line | relative viability (Vismodegib + Decitabine; first compound 0.08 µM) | relative viability (Vismodegib + Decitabine; first compound 0.253 µM) | relative viability (Vismodegib + Decitabine; first compound 0.8 µM) | relative viability (Vismodegib + Decitabine; first compound 2.53 µM) | relative viability (Vismodegib + Decitabine; first compound 8 µM) | relative viability (VE-821 + Bortezomib; first compound 0.08 µM) | relative viability (VE-821 + Bortezomib; first compound 0.253 µM) | relative viability (VE-821 + Bortezomib; first compound 0.8 µM) | relative viability (VE-821 + Bortezomib; first compound 2.53 µM) | relative viability (VE-821 + Bortezomib; first compound 8 µM) | relative viability (Vismodegib + Phenformin; first compound 0.08 µM) | relative viability (Vismodegib + Phenformin; first compound 0.253 µM) | relative viability (Vismodegib + Phenformin; first compound 0.8 µM) | relative viability (Vismodegib + Phenformin; first compound 2.53 µM) | relative viability (Vismodegib + Phenformin; first compound 8 µM) | relative viability (VE-821 + Tozasertib; first compound 0.08 µM) | relative viability (VE-821 + Tozasertib; first compound 0.253 µM) | relative viability (VE-821 + Tozasertib; first compound 0.8 µM) | relative viability (VE-821 + Tozasertib; first compound 2.53 µM) | relative viability (VE-821 + Tozasertib; first compound 8 µM)
LCLC-103H | 0.74 | 0.755 | 0.768 | 0.726 | 0.735 | 1.12 | 0.938 | 1.01 | 1.06 | 1.09 | 0.39 | 0.332 | 0.328 | 0.357 | 0.323 | 0.505 | 0.424 | 0.389 | 0.458 | 0.362
LOU-NH91 | 0.796 | 0.806 | 0.84 | 0.819 | 0.81 | 0.529 | 0.906 | 0.527 | 0.555 | 0.377 | 0.66 | 0.68 | 0.67 | 0.75 | 0.681 | 0.69 | 0.666 | 0.665 | 0.701 | 0.54
LU99A | 0.944 | 0.844 | 0.887 | 0.835 | 0.781 | 1.11 | 1.23 | 1.16 | 1.08 | 0.514 | 0.901 | 0.807 | 0.813 | 0.802 | 0.772 | 0.264 | 0.299 | 0.277 | 0.24 | 0.227
LXF-289 | 0.324 | 0.414 | 0.369 | 0.363 | 0.431 | 1.04 | 1.07 | 1.1 | 1.08 | 1.11 | 0.524 | 0.495 | 0.508 | 0.517 | 0.467 | 0.246 | 0.196 | 0.205 | 0.193 | 0.119
NCI-H23 | 0.362 | 0.321 | 0.329 | 0.323 | 0.358 | 1 | 0.991 | 1.14 | 0.829 | 0.323 | 0.765 | 0.728 | 0.806 | 0.742 | 0.731 | 0.323 | 0.559 | 0.263 | 0.192 | 0.179
NCI-H322M | 0.694 | 0.651 | 0.661 | 0.822 | 0.635 | 1.24 | – | 1.33 | 1.25 | 1.08 | 0.798 | 0.771 | 0.783 | 0.729 | 0.756 | 0.542 | 0.457 | 0.451 | 0.434 | 0.297
NCI-H441 | 0.23 | – | 0.235 | 0.211 | 0.238 | 0.622 | 0.967 | 0.552 | 0.705 | 0.405 | 0.838 | 0.648 | 0.831 | 0.835 | 0.907 | 0.78 | 0.399 | 0.666 | 0.564 | 0.511
NCI-H460 | 0.603 | 0.467 | 0.544 | 0.486 | 0.54 | 1.51 | 1.05 | 0.977 | 0.823 | 0.248 | 0.516 | 0.512 | 0.561 | 0.508 | 0.595 | 0.492 | 0.343 | 0.0499 | 0.0583 | 0.0489
NCI-H520 | 0.491 | 0.445 | 0.572 | 0.459 | 0.499 | 0.603 | 0.697 | – | 0.57 | 0.47 | 0.535 | 0.576 | 0.63 | 0.574 | 0.688 | 0.493 | 0.457 | – | 0.435 | 0.858
NCI-H596 | 0.889 | 0.967 | 0.979 | 0.997 | 1.07 | 1.21 | 1.02 | 1.08 | 1.09 | 1.09 | 0.71 | 0.737 | 0.748 | 0.769 | 0.767 | 0.916 | 0.82 | 0.798 | 0.954 | 0.774
NCI-H647 | 0.38 | 0.327 | 0.38 | 0.385 | 0.409 | 1.39 | 0.825 | 0.804 | 1.08 | 0.569 | 0.439 | 0.491 | 0.509 | 0.507 | 0.433 | 0.372 | 0.26 | 0.261 | 0.238 | 0.164
NCI-H650 | 0.33 | 0.314 | 0.329 | 0.344 | 0.298 | 0.828 | 0.709 | 0.961 | 0.753 | 1.02 | 0.469 | 0.417 | 0.45 | 0.418 | 0.393 | 0.744 | 0.744 | 0.643 | 0.765 | 0.707
NCI-H661 | 0.47 | 0.528 | 0.549 | 0.575 | 0.577 | 0.885 | 0.953 | 0.767 | 0.895 | 0.72 | 0.31 | 0.264 | 0.3 | 0.259 | 0.291 | 0.351 | 0.354 | 0.336 | 0.343 | 0.336
NCI-H727 | 0.9 | 1.01 | 0.857 | 0.837 | 0.9 | 0.872 | 0.817 | 0.741 | 0.761 | 0.493 | 0.52 | 0.58 | 0.592 | 0.524 | 0.444 | 0.601 | 0.633 | 0.505 | 0.67 | 0.488
NCI-H838 | 0.464 | 0.43 | 0.502 | 0.431 | 0.609 | 0.912 | 0.855 | 0.485 | 1.22 | 0.652 | 0.53 | 0.573 | 0.559 | 0.67 | 0.612 | 0.284 | 0.25 | 0.2 | 0.212 | 0.215
NCI-H1355 | 0.354 | 0.333 | 0.347 | 0.372 | 0.364 | 1.26 | 1.15 | 1.09 | 1.27 | 0.718 | 0.455 | 0.474 | 0.462 | 0.458 | 0.401 | 0.542 | 0.52 | 0.404 | 0.369 | 0.194
NCI-H1437 | 0.587 | 0.533 | 0.606 | 0.554 | 0.501 | 0.504 | 0.523 | 0.46 | 0.592 | 0.4 | 0.296 | 0.309 | 0.291 | 0.333 | 0.289 | 0.437 | 0.401 | 0.368 | 0.421 | 0.408
